Structures can show the parent of a compound that is named as a salt.
Test: CCK-8 cytotoxicity in MCF-7 cells
Format: cell-based
Conditions: human, MCF-7 breast cancer epithelial cells, MCF-7, 6 μg mL^−1 of DOX
Procedure: Cytotoxicity of the intact GSH-sensitive HMSiO2 NPs, TEOS HMSiO2 NPs, DOX-loaded GSH-sensitive HMSiO2 NPs, DOX-loaded TEOS HMSiO2 NPs, and free DOX was evaluated in MCF-7 breast cancer epithelial cells. Cells were cultured at 37° C. in 5% CO2 in DMEM with 10% FBS. Then, the cells were stained using Trypan Blue Stain 0.4% and read by Invitrogen Countess™ automated cell counter (Thermo Fisher Scientific Corporation, Grand Island, N.Y., USA). For the cytotoxicity evaluation, cells were seeded onto 96-well plates with the density of 4,000 cells/well and incubated to grow for 48 h. After 48 h, the cells were washed with PBS. Fresh media containing 10% FBS was then added (120 μL) with varying nanoparticle concentrations ranging from 0 to 1,000 μg mL^−1. Wells with media or Triton™ X-100 (without nanoparticles) were used as negative or positive controls, respectively. The cells were then incubated for another 24 and 48 h, the media was aspirated, and the cells were washed twice with PBS. Cell viability was determined using CCK-8 cytotoxicity assay kit according to an established protocol and absorbance was measured at 450 nm with SpectraMax® M2 microplate reader. Assays were performed at least in triplicate.

Structure (SMILES): COc1cccc2c1C(=O)c1c(O)c3c(c(O)c1C2=O)C[C@@](O)(C(=O)CO)C[C@@H]3O[C@H]1C[C@H](N)[C@H](O)[C@H](C)O1 [free DOX, Doxorubicin hydrochloride salt]
- cytotoxicity at 24 h, 6 μg mL^−1 (24 h incubation, read-out: Cell viability reduction (cells killed)): ~64%
- cytotoxicity at 48 h, 6 μg mL^−1 (48 h incubation, read-out: Cell viability reduction): ~80%
